Target: T1, Flag-mUSP18 (Mus musculus, UniProt Q9WTV6)
T1 construct: expressed in transfected cells; host or cells: HEK293T
T1 sequence (Q9WTV6 1-368): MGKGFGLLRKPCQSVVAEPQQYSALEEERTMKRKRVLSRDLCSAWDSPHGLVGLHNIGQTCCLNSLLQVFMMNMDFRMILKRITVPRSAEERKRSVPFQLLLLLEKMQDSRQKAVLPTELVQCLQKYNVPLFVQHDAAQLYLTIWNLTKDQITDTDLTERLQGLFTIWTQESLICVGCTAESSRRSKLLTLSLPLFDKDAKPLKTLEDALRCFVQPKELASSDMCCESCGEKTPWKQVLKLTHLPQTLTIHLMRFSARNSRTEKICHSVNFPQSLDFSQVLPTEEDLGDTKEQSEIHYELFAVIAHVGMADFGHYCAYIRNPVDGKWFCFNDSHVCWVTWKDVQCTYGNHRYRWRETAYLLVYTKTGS
Assay: Gel-based ABPP with Rho-mISG15ct-PA probe in HEK293T cells overexpressing Flag-mUSP18
Type: cell-based, murine
Conditions: live HEK293T cells, Flag-mUSP18, 4 h treatment
Protocol: To assess the cellular target engagement and cell permeability of these inhibitors, we performed activity‐based protein profiling. […] Following washing and cell lysis, cell extracts were incubated with a Rhodamine‐tagged murine ISG15 C‐terminal domain propargylamide activity‐based probe (Rho‐mISG15ct‐PA), which covalently labels the active site cysteine of active deISGylating enzymes.^[ [41] ^] The labelled enzymes were resolved by SDS‐PAGE and imaged by in‐gel fluorescence, where inhibition of USP18 is reflected by disappearance of the USP18‐probe‐labelled bands around 55 kDa (Figures 6a, S11A). All three inhibitors engaged with cellular mUSP18 in a dose‐dependent manner, with BB07CA902 and BB07CA28 showing efficient inhibition already at 1 µM concentration. […] The in‐cell selectivity of these inhibitors for USP18 over DUBs was confirmed in a similar ABPP experiment using a Rhodamine‐tagged ubiquitin propargylamide probe (Rho‐Ub‐PA),^[ [42] ^] which labels the active site cysteine of all active cysteine DUBs.
Figure 6 Inhibition of murine USP18 activity in living cells. a) Gel‐based ABPP potency assessment using a Rho‐mISG15ct‐PA probe in HEK293T cells overexpressing Flag‐mUSP18. At 24 h following transfection, cells were incubated with DMSO or increasing concentrations of indicated inhibitors for 4 h, lysed, and treated with Rho‐mISG15ct‐PA probe. Top panel: fluorescence scan. Middle panel: anti‐Flag western blot. Bottom panel: anti‐GAPDH western blot confirms equal loading. b) Accumulation of ISGylation in mouse IFN‐β‐stimulated EL4 cells. At 24 h following mouse IFN‐β treatment, cells were incubated with DMSO or increasing concentrations of indicated inhibitors for 4 h, lysed, and treated with Rho‐mISG15ct‐PA probe. […] Middle panel: fluorescence scan. […]
Samples were then diluted 3-fold with water and analyzed by mass spectrometry by injecting 2 μL into a Waters XEVO-G2 XS Q-TOF mass spectrometer equipped with an electrospray ion source in positive mode (capillary voltage 1.2 kV, desolvation gas flow 900 L/h, T = 60 °C) with a resolution of R = 26,000. […]

concentration at which inhibition of mUSP18 probe labelling is observed | SMILES
≤ 1 µM | Cc1cc(C(=O)N[C@H]2C[C@@H]3CN(C#N)C[C@@H]3C2)ccc1Br [BB07CA28]
≤ 1 µM | Cc1cc(C(=O)N[C@H]2C[C@@H]3CN(C#N)C[C@@H]3C2)ccc1C(C)C [BB07CA902]

— PMC12668310, “High‐Throughput Synthesis and Screening of a Cyanimide Library Identifies Selective Inhibitors of ISG15‐Specific Protease mUSP18” (Angewandte Chemie (International Ed. in English), 2025)
